Data set [1] is described as follows: Cell viability (MTS) after treatment with bis-compound. In kind it is cell-based. Particulars: human, pha-activated pbmc, 5 μg/ml. The protocol: Human peripheral blood monocytes (PBMC) were obtained from commercial sources as a leukophoresis from a healthy volunteer and were purified by centrifugation on a Ficoll-Hypaque (Pharmacia) gradient (1700 rpm for 20 min). The "buffy" coat containing the PBMC was diluted with serum-free culture medium (SF-RPMI) to a volume of 50 ml and collected by centrifugation at 1500 rpm for 5 min. Cells were resuspended in cell culture medium containing 10% fetal bovine serum (RPMI-10) and phytohemaglutinin (PHA - 10 μg/ml) at a density of 5×10^6 cells/ml and were cultured for 3 days at 37° C. in a humidified CO2 incubator. The PHA-activated cells were collected by centrifugation, washed three times with an equal volume of SF-RPMI and resuspended in fresh RPMI-10 (1×10^6 cells /ml). Aliquots (100 μl) were dispensed into the wells of multiple 96-well plates to give a final cell number of 10^5 per well. Test compounds, dissolved in dimethyl sulfoxide (DMSO) at 1 mg/ml, were first diluted in culture medium to an intermediate concentration of 20 μg/ml and then were added (50 μwell) to a specific well of the plate for each compound. Stimulation medium (50 μl/well) containing 10% serum, IL-2 and IL-12 was added to final concentrations of 25 U/ml and 0.5 ng/ml, respectively. Control wells receive no IL-2 or IL-12 (negative control) or received both interleukins but no test compound (positive control). The plates were incubated for 48 hr at 37° C. in a CO2 incubator at which time aliquots (20 μl) were removed for analysis of IFN-γ concentration by ELISA. A quantitative ELISA was developed by coating 96-well plates with an mouse monoclonal antibody against human IFN-γ, 1 μg/ml in phosphate buffered saline (PBS) (Pestka Biological Laboratories), overnight at 4° C. Unbound antibody was washed off by washing three times with PBS. Non-specific antibody binding was blocked with a solution of 1% bovine serum albumin (BSA) and 1% goat serum in PBS (150 μl/well) which was incubated for 2 hr at 37° C. After washing the blocked plates four times with PBS, test samples and dilutions of the IFN-γ standard are added in a final volume of 100 μl/well. Following an overnight incubation at 4° C., the plates are washed four times with PBS, and a polyclonal rabbit antiserum against human IFN-γ (1/10000 dilution--Petska Biological Laboratories) is added. After an additional incubation for 1 hr at 37° C. and four washes with PBS, a polyclonal donkey anti-rabbit detecting antibody, conjugated to horseradish peroxidase (1/700 dilution--Petska Biological Laboratories) is added for 1 hr at 37° C. The plates are then washed four times with PBS and 100 μl of K-blue substrate E(ILISA Technologies, Neogen Corp.) is added until the color in the wells containing the standard curve is sufficiently developed, at which time 100 μl of "Red-stop" solution (ELISA Technologies) is added. The absorbance of the solution within each well of the plate is then read at 650 nm using an ELISA plate reader (Dynatech MR7000). The amount of IFN-γ is calculated by comparing the optical density of the test sample with a standard curve derived from the dilutions of the control IFN-y. […] MTS is a chemical chromophore that is metabolized in the mitochondria of viable cells to produce a color which increases in intensity in proportion to the numbers of viable cells. The absorbance of the cell culture can be compared to control cultures in order to determine the percent viability.

For data set [2], the system named is IL-12 induction of IFN-γ in PHA-activated human PBMC. Kind of data set: Screening assay for compounds which inhibit IL-12 induction of IFN-γ (ELISA). Particulars: 5 μg/ml, IL-2 25 U/ml + IL-12 0.5 ng/ml, 48 hr, single test, read-out: % INH of IFNγ. In kind it is cell-based. The protocol: Human peripheral blood monocytes (PBMC) were obtained from commercial sources as a leukophoresis from a healthy volunteer and were purified by centrifugation on a Ficoll-Hypaque (Pharmacia) gradient (1700 rpm for 20 min). The "buffy" coat containing the PBMC was diluted with serum-free culture medium (SF-RPMI) to a volume of 50 ml and collected by centrifugation at 1500 rpm for 5 min. Cells were resuspended in cell culture medium containing 10% fetal bovine serum (RPMI-10) and phytohemaglutinin (PHA - 10 μg/ml) at a density of 5×10^6 cells/ml and were cultured for 3 days at 37° C. in a humidified CO2 incubator. The PHA-activated cells were collected by centrifugation, washed three times with an equal volume of SF-RPMI and resuspended in fresh RPMI-10 (1×10^6 cells /ml). Aliquots (100 μl) were dispensed into the wells of multiple 96-well plates to give a final cell number of 10^5 per well. Test compounds, dissolved in dimethyl sulfoxide (DMSO) at 1 mg/ml, were first diluted in culture medium to an intermediate concentration of 20 μg/ml and then were added (50 μwell) to a specific well of the plate for each compound. Stimulation medium (50 μl/well) containing 10% serum, IL-2 and IL-12 was added to final concentrations of 25 U/ml and 0.5 ng/ml, respectively. Control wells receive no IL-2 or IL-12 (negative control) or received both interleukins but no test compound (positive control). The plates were incubated for 48 hr at 37° C. in a CO2 incubator at which time aliquots (20 μl) were removed for analysis of IFN-γ concentration by ELISA. A quantitative ELISA was developed by coating 96-well plates with an mouse monoclonal antibody against human IFN-γ, 1 μg/ml in phosphate buffered saline (PBS) (Pestka Biological Laboratories), overnight at 4° C. Unbound antibody was washed off by washing three times with PBS. Non-specific antibody binding was blocked with a solution of 1% bovine serum albumin (BSA) and 1% goat serum in PBS (150 μl/well) which was incubated for 2 hr at 37° C. After washing the blocked plates four times with PBS, test samples and dilutions of the IFN-γ standard are added in a final volume of 100 μl/well. Following an overnight incubation at 4° C., the plates are washed four times with PBS, and a polyclonal rabbit antiserum against human IFN-γ (1/10000 dilution--Petska Biological Laboratories) is added. After an additional incubation for 1 hr at 37° C. and four washes with PBS, a polyclonal donkey anti-rabbit detecting antibody, conjugated to horseradish peroxidase (1/700 dilution--Petska Biological Laboratories) is added for 1 hr at 37° C. The plates are then washed four times with PBS and 100 μl of K-blue substrate E(ILISA Technologies, Neogen Corp.) is added until the color in the wells containing the standard curve is sufficiently developed, at which time 100 μl of "Red-stop" solution (ELISA Technologies) is added. The absorbance of the solution within each well of the plate is then read at 650 nm using an ELISA plate reader (Dynatech MR7000). The amount of IFN-γ is calculated by comparing the optical density of the test sample with a standard curve derived from the dilutions of the control IFN-y. The amount of IFN-γ that is induced in the presence of both IL-2 and IL-12 generally ranges from 1200-2000 pg/ml while the amount produced in the absence of IL-12 is generally less than 50 pg/ml. Experimental data are shown in Table 2 which discloses a) the percent inhibition of IFNγ production, relative to a […], when the cells have been treated with a bis-compound at a final concentration of 5 μg/ml of the listed bis-compound (%INH or IFNγ) and b) the percent of cells which are viable after the treatment with 5 μg/ml of the various bis-compounds, determined by adding MTS to the media (% Viability). MTS is a chemical chromophore that is metabolized in the mitochondria of viable cells to produce a color which increases in intensity in proportion to the numbers of viable cells. […]
(In an ELISA, binding on a coated surface is turned into a signal by an enzyme label.)

Data set [3] is described as follows: Toxicity of bis-compounds after single systemic dose. In kind it is in vivo. Particulars: mouse, in vivo; IV; 20% DMSO, 16% cremaphor; conc. sol. 10 mg/ml; single dose.
In data set [4] the test system is mice. The data set is described as above. The data set is classed as in vivo. The settings on record: 20% DMSO, 16% cremaphor, 10 mg/ml.

Structures are written as SMILES.

Turning to `CCCC(C)(c1ccc(O)cc1)c1ccc(O)c(C)c1` (stereo not drawn) [Compound 54063], the viability in data set [1] is 93%.

For the compound `Cc1cc(C(C)c2cc(C)cc(C(C)(C)C)c2O)c(O)c(C(C)(C)C)c1` [Compound 54005], in data set [2], the inhibition at 5 µg/mL amounted to 96%. The viability in data set [1] came out at 30%.

As for `CCCCCCC(C)(c1ccc(O)cc1)c1ccc(O)c(C)c1` (stereo not drawn) [Compound 54059], the inhibition at 5 µg/mL in data set [2] was determined as 64%. Moreover, the viability in data set [1] worked out at 88%.

For `Cc1cc(C(c2ccc(Cl)cc2)c2cc(C)c(O)c(C)c2)cc(C)c1O` [Compound 54042], in data set [2], the inhibition at 5 µg/mL is 28%. Besides, in data set [1], the viability stood at 102%.

In the case of `Cc1cc(C(c2ccc(C(=O)O)cc2)c2cc(C)c(O)c(C)c2)cc(C)c1O` [Compound 54050], the inhibition at 5 µg/mL in data set [2] worked out at 63%. Besides, the viability in data set [1] stood at 86%.

For `Cc1cc(C(c2ccccc2)c2cc(C)c(O)c(C(C)(C)C)c2)cc(C(C)(C)C)c1O` [Compound 54058], the inhibition at 5 µg/mL in data set [2] was 88%. In data set [1], the viability was found to be 86%.

Take `CCC(c1cc(C)c(O)c(C(C)C)c1)c1cc(C)c(O)c(C(C)C)c1` [Compound 54109]: the inhibition at 5 µg/mL in data set [2] was found to be 93%. The viability in data set [1] is 33%.

On to `Cc1cc(Cl)cc(Cc2cc(Cl)cc(C)c2O)c1O` [Compound 8296], for which the inhibition at 5 µg/mL in data set [2] is 103%. Moreover, the viability in data set [1] stood at 37%.

Regarding `Cc1cc(C(c2ccc(C(=O)O)cc2)c2cc(C)c(O)c(C(C)(C)C)c2)cc(C(C)(C)C)c1O` [Compound 54346], in data set [2], the inhibition at 5 µg/mL was determined as 91%. Also, the viability in data set [1] amounted to 84%.

With `CC(C)(C)c1cc2c(cc1O)C(C)(C)c1cc(O)c(C(C)(C)C)cc1O2` [Compound 53433], the inhibition at 5 µg/mL in data set [2] worked out at 97%. Moreover, the viability in data set [1] was 26%.

Regarding `CCC(C)(c1cc(C)c(O)c(C)c1)c1cc(C)c(O)c(C)c1` [Compound 54056], the inhibition at 5 µg/mL in data set [2] was 84%. For the same compound, in data set [1], the viability turned out to be 87%.

As for `CCC(c1cc(C)cc(C(C)(C)C)c1O)c1cc(C)cc(C(C)(C)C)c1O` [Compound 54008], the inhibition at 5 µg/mL in data set [2] was 91%. The viability in data set [1] was determined as 69%.

`Cc1cc(C2(c3ccc(O)c(C)c3)CCCCC2)ccc1O` [Compound 54048]: the inhibition at 5 µg/mL in data set [2] is 68%. Besides, in data set [1], the viability stood at 79%.

In turn, `Cc1cc(C(C)(C)c2cc(C)c(O)c(C)c2)cc(C)c1O` [Compound 54046] showed an LD50 in data set [3] greater than 150 mg/kg. Moreover, the “Results (Dead/Alive)” value in data set [4] (100 mg/kg IV) and in data set [4] (150 mg/kg IV) was “Alive” throughout. Moreover, in data set [1], the viability is 95%.

`CCCC(CCC)(c1ccc(O)cc1)c1ccc(O)c(C)c1` [Compound 54099]: the viability in data set [1] turned out to be 93%.

Turning to `CCCC(c1cc(C)cc(C)c1O)c1cc(C)cc(C)c1O` [Compound 51851], in data set [2], the inhibition at 5 µg/mL stood at 86%. In data set [1], the viability turned out to be 107%.

Turning to `CC(C)(C)CC(C)(C)c1cc2c(cc1O)C(C)(C)c1cc(O)c(C(C)(C)CC(C)(C)C)cc1O2` [Compound 53437], the inhibition at 5 µg/mL in data set [2] came to 74%. In addition, in data set [1], the viability is 85%.

As for `Cc1cc(C(c2cc(C)c(O)c(C)c2)c2ccc(O)c(O)c2)cc(C)c1O` [Compound 54004], the inhibition at 5 µg/mL in data set [2] is -37%. The viability in data set [1] was 99%.

Consider `Cc1cc(C(c2ccc(C(C)C)cc2)c2cc(C)c(O)c(C)c2)cc(C)c1O` [Compound 54114], for which, in data set [2], the inhibition at 5 µg/mL came out at 65%. Further, in data set [1], the viability came out at 96%.

Consider `Cc1cc(O)c(C(C)C)cc1C(c1ccccc1)c1cc(C(C)C)c(O)cc1C` [Compound 54007], for which the inhibition at 5 µg/mL in data set [2] was determined as 95%. For the same compound, the viability in data set [1] worked out at 26%.

Regarding `CCCCCCC(C)(c1ccc(O)c(C)c1)c1ccc(O)c(C)c1` [Compound 54094], the viability in data set [1] turned out to be 25%.

Take `CC(C)(C)c1cc(C(c2ccc(C(=O)O)cc2)c2cc(C(C)(C)C)c(O)c(C(C)(C)C)c2)cc(C(C)(C)C)c1O` [Compound 54055]: the inhibition at 5 µg/mL in data set [2] stood at 83%. Also, in data set [1], the viability is 88%.

`CCC(c1cc(C)c(O)c(C(C)(C)C)c1)c1cc(C)c(O)c(C(C)(C)C)c1` [Compound 54472]: the inhibition at 5 µg/mL in data set [2] is 98%. In data set [1], the viability came to 26%.

For `Cc1cc(C(C)c2cc(C)c(O)c(C(C)(C)C)c2)cc(C(C)(C)C)c1O` [Compound 54054], the inhibition at 5 µg/mL in data set [2] stood at 98%. The viability in data set [1] is 27%.

For `Cc1cc(C(c2ccc([N+](=O)[O-])cc2)c2cc(C)c(O)c(C(C)(C)C)c2)cc(C(C)(C)C)c1O` [Compound 54053], the inhibition at 5 µg/mL in data set [2] stood at 93%. Also, the viability in data set [1] came to 33%.

Regarding `CCC(c1cc(C)c(O)c(C)c1)c1cc(C)c(O)c(C)c1` [Compound 54471], in data set [2], the inhibition at 5 µg/mL is 89%. Also, the viability in data set [1] was 83%.

The term viability denotes a read-out of living cells in per cent, often relative to untreated cells. The LD50 is the dose expected to kill half of the subjects tested. Lower therefore signals greater toxicity.

For the origin of these results see patent US5880146A, “Inhibition of IL-12-induced IFN-γ synthesis by specific bis-phenol compounds as a method of immune modulation” (Fuji ImmunoPharmaceuticals Corporation, priority 1995, dated 1999).
